Measurements: BigSolDB 2.1

Cc1cc(=O)c(C(=O)N[C@@H](C(=O)N[C@@H]2C(=O)N3C(C(=O)O)=C(CSc4nnnn4C)CS[C@H]23)c2ccc(O)cc2)c[nH]1
solubility (mole fraction)
Details	278.2 K	283.2 K	288.2 K	293.2 K	298.2 K	303.2 K
in ethanol	0.000445	0.000508	0.000592	0.00069	0.000834	0.00101
in isopropanol	0.000118	0.00015	0.000187	0.000236	0.000297	0.000376
in n-butanol	9.53e-05	0.000115	0.000139	0.000166	0.0002	0.000245
in n-propanol	0.000242	0.00027	0.000305	0.000348	0.000407	0.000479
in water	4.04e-07	4.82e-07	5.8e-07	6.99e-07	8.5e-07	1.04e-06
